pIC50: −log10 of the molar value. Values after ≈ are worked out from the molar mass of the structure shown. Where two headings read alike, the source gives them in different places.
Tests used:
[1] = molecular target: mouse cathepsin L (mCTSL) (Mus musculus, UniProt P06797); assay: mCTSL biochemical assay; settings: for IC50: read-out: pIC50 (mouse CTSL) (converted)
[2] = molecular target: SARS-CoV-2 M^pro (Severe acute respiratory syndrome coronavirus 2, UniProt P0DTD1); assay: biochemical; type: biochemical; settings: for M^pro inhibition, IC50 range in words: biochemical assay; for IC50: read-out: M^pro biochemical assay pIC50 (converted)
[3] = molecular target: T1, human cathepsin L (hCTSL) (Homo sapiens, UniProt P07711); assay: hCTSL biochemical assay; settings: for hCTSL inhibition, IC50 range in words: biochemical assay
T1 construct: purchased R&D Systems

[4] = molecular target: human cathepsin B (hCTSB) (Homo sapiens, UniProt P07858); assay: hCTSB biochemical assay
[5] = test system: luciferase-expressing VSV (ΔG) pseudotyped with Spike from SARS-CoV-2; assay: microbe, parasite or virus in culture; type: cell-based; settings: Vesicular stomatitis virus, Vero C1008, read-out: Entry reporter assay pEC50 (converted)
[6] = test system: SARS-CoV-2; assay: microbe, parasite or virus in culture; type: cell-based; settings: for EC50: Severe acute respiratory syndrome coronavirus 2, Vero C1008, read-out: SARS-CoV-2 CPE reduction assay pEC50 (converted)
[7] = in vitro; settings: African green monkey
[8] = 3 h, 2 µM
[9] = physchem; settings: pH 7.4
[10] = in vitro; settings: mouse, plasma, mouse plasma protein binding
[11] = in vitro; settings: mouse, hepatocytes; for hepatocyte CLint at 2 h, 2 µM: CLint (mouse hepatocytes)
[12] = molecular target: mouse cathepsin B (mCTSB) (Mus musculus, UniProt P10605); assay: mCTSB biochemical assay; settings: read-out: pIC50 (mouse CTSB) (converted)
[13] = microsomes, 10 µM, pH 7.4
[14] = physchem; settings: pH 7.4; remark: listed apart in the source
[15] = Mouse hepatocyte stability; settings: mouse, cryopreserved hepatocytes

T1 sequence (P07711 114-333): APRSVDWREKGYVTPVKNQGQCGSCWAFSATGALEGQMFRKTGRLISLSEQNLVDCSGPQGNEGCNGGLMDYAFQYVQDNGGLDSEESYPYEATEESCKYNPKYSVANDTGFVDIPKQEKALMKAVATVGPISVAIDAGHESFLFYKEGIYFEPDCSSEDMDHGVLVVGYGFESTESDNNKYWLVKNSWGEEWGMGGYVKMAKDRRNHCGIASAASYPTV
Sequence of mouse cathepsin L (mCTSL) (P06797 114-334): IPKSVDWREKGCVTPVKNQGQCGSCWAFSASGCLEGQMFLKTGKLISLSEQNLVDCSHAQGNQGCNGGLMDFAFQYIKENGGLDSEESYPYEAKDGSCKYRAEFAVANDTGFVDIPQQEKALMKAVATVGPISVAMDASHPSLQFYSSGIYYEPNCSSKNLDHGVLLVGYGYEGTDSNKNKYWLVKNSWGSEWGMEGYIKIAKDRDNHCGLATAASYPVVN
Sequence of mouse cathepsin B (mCTSB) (P10605 80-339): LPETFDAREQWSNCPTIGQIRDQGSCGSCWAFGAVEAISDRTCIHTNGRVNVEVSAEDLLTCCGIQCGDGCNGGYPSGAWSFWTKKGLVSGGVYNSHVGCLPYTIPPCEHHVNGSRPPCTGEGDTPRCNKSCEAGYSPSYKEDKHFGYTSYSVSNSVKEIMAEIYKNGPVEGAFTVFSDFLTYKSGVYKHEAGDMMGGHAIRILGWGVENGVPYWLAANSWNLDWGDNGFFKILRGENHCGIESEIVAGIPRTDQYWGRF

SMILES | IC50 [2] | hCTSL biochemical assay pIC50 [3] | hCTSB biochemical assay pIC50 [4] | IC50 [1] | EC50 [5] | EC50 [6] | CC50 [7] | mouse plasma protein binding, fraction bound (Fb) [8] | logD at 1 h [9] | fraction unbound at 3 h, 2 µM ([10]; fraction bound (Fb)) | fraction unbound at 3 h, 2 µM ([10]; fraction unbound (Fu)) | hepatocyte CLint at 2 h, 2 µM [11] | solubility kinetic at 24 h [14] | also measured
CC(C)(C)[C@H](NC(=O)C(F)(F)F)C(=O)N1C[C@H]2[C@@H]([C@H]1C(=O)N[C@H](C#N)C[C@@H]1CCNC1=O)C2(C)C [Nirmatrelvir, reference compound] |  |  |  |  |  |  |  |  |  |  |  |  |  | pIC50 [1]: < 4.30
COc1cccc2[nH]c(C(=O)N[C@H](Cc3cccc(F)c3)C(=O)N[C@@H](C[C@@H]3CCNC3=O)C(=O)COc3c(F)c(F)c(CO)c(F)c3F)cc12 [compound 2, N-((R)-3-(3-Fluorophenyl)-1-oxo-1-(((S)-3-oxo-1-((S)-2-oxopyrrolidin-3-yl)-4-(2,3,5,6-tetrafluoro-4-(hydroxymethyl)phenoxy)butan-2-yl)amino)propan-2-yl)-4-methoxy-1H-indole-2-carboxamide] | 4.27 µM | 4.67 | 5.14 | 13.5 µM | > 50.1 µM | 21.9 µM | > 74.1 µM |  |  |  |  |  |  | M^pro inhibition, IC50 range in words [2]: only micromolar inhibition; hCTSL inhibition, IC50 range in words [3]: only micromolar inhibition; fold less active than 1 in the SARS-CoV-2 CPE reduction assay [6]: ~169 fold
CCCCCCCC(=O)N[C@@H](Cc1cccc(F)c1)C(=O)N[C@@H](C[C@@H]1CCNC1=O)C(=O)COc1c(F)c(F)c(CO)c(F)c1F [compound 3, N-((S)-3-(3-Fluorophenyl)-1-oxo-1-(((S)-3-oxo-1-((S)-2-oxopyrrolidin-3-yl)-4-(2,3,5,6-tetrafluoro-4-(hydroxymethyl)phenoxy)butan-2-yl)amino)propan-2-yl)octanamide] | 0.0115 µM | 7.39 | 7.92 | 0.0759 µM |  | 0.0708 µM | > 0.501 µM | 99.59% | 2.23 | 0.0041 | 0.0041 | 206 µL/min/1e6 cells |  | 
CCCCCCCCCCCCCCCC(=O)N[C@@H](Cc1cccc(F)c1)C(=O)N[C@@H](C[C@@H]1CCNC1=O)C(=O)COc1c(F)c(F)c(CO)c(F)c1F [compound 4, N-((S)-3-(3-Fluorophenyl)-1-oxo-1-(((S)-3-oxo-1-((S)-2-oxopyrrolidin-3-yl)-4-(2,3,5,6-tetrafluoro-4-(hydroxymethyl)phenoxy)butan-2-yl)amino)propan-2-yl)palmitamide] | 3.8 µM | < 4.30 | 5.11 | 10.5 µM | 5.62 µM | 2.24 µM | > 25.1 µM |  |  |  |  | 9.31 µL/min/1e6 cells |  | M^pro inhibition, IC50 range in words [2]: only micromolar inhibition; hCTSL inhibition, IC50 range in words [3]: only micromolar inhibition; logD [9]: > 3.5
O=C(N[C@@H](Cc1c[nH]c2ccccc12)C(=O)N[C@@H](C[C@@H]1CCNC1=O)C(=O)COc1c(F)c(F)c(CO)c(F)c1F)c1cc2ccccc2[nH]1 [compound 5, N-((S)-3-(1H-Indol-3-yl)-1-oxo-1-(((S)-3-oxo-1-((S)-2-oxopyrrolidin-3-yl)-4-(2,3,5,6-tetrafluoro-4-(hydroxymethyl)phenoxy)butan-2-yl)amino)propan-2-yl)-1H-indole-2-carboxamide] | 0.0417 µM | 7.64 | 6.54 | 0.224 µM | 5.75 µM | 1.17 µM | > 10 µM | 98.79% | 1.5 | 0.0121 | 0.0121 | 182 µL/min/1e6 cells |  | IC50 [12]: 0.0123 µM
COc1cccc2[nH]c(C(=O)N[C@@H](Cc3cccc(F)c3)C(=O)N[C@@H](C[C@@H]3CC(=O)NC3=O)C(=O)COc3c(F)c(F)c(CO)c(F)c3F)cc12 [compound 6, N-((S)-1-(((S)-1-((R)-2,5-Dioxopyrrolidin-3-yl)-3-oxo-4-(2,3,5,6-tetrafluoro-4-(hydroxymethyl)phenoxy)butan-2-yl)amino)-3-(3-fluorophenyl)-1-oxopropan-2-yl)-4-methoxy-1H-indole-2-carboxamide] | 0.00603 µM | 7.89 | 6.55 | 0.0977 µM |  | 1.91 µM | > 25.1 µM |  | 3.08 |  |  | 156 µL/min/1e6 cells | 20.9 µM (≈ 15 µg/mL) | Peak area (%) by LCMS, mouse liver microsomal stability assay of 1 ([13]; 0 h): 0%; Peak area (%) by LCMS, mouse liver microsomal stability assay of 1 ([13]; 5 min): 2.5%; Peak area (%) by LCMS, mouse liver microsomal stability assay of 1 ([13]; 0.25 h): 10.2%; Peak area (%) by LCMS, mouse liver microsomal stability assay of 1 ([13]; 0.5 h): 19.2%; Peak area (%) by LCMS, mouse liver microsomal stability assay of 1 ([13]; 0.75 h): 23.2%; Peak area (%) by LCMS, mouse liver microsomal stability assay of 1 ([13]; 1 h): 24.9%
COc1cccc2[nH]c(C(=O)N[C@@H](Cc3cccc(F)c3)C(=O)N[C@@H](C[C@@H]3CC(=O)NC3=O)C(=O)COc3c(F)c(F)c(C(C)O)c(F)c3F)cc12 (stereo partly drawn) [compound 9, N-((2S)-1-(((2S)-1-((R)-2,5-Dioxopyrrolidin-3-yl)-3-oxo-4-(2,3,5,6-tetrafluoro-4-(1-hydroxyethyl)phenoxy)butan-2-yl)amino)-3-(3-fluorophenyl)-1-oxopropan-2-yl)-4-methoxy-1H-indole-2-carboxamide] | 0.0055 µM | 7.65 | 6.09 | 0.158 µM |  | 1.2 µM | > 10 µM |  | 2.6 |  |  | 134 µL/min/1e6 cells | 6.33 µM (≈ 4.62 µg/mL) | 
COc1cccc2[nH]c(C(=O)N[C@@H](Cc3cccc(F)c3)C(=O)N[C@@H](C[C@@H]3CC(=O)NC3=O)C(=O)COc3c(F)c(F)c(C(C)(C)O)c(F)c3F)cc12 [compound 11] | 0.00676 µM | 7.95 | 5.88 | 0.316 µM | 8.91 µM | 0.759 µM | > 5.01 µM |  | 2.03 |  |  | 124 µL/min/1e6 cells | 0.88 µM (≈ 0.655 µg/mL) | fold less active than 1 in the SARS-CoV-2 CPE reduction assay [6]: ~6 fold
COc1cccc2[nH]c(C(=O)N[C@@H](Cc3cccc(F)c3)C(=O)N[C@@H](CCn3cn[nH]c3=O)C(=O)COc3c(F)c(F)c(C(C)(C)O)c(F)c3F)cc12 [compound 13, N-((S)-3-(3-Fluorophenyl)-1-oxo-1-(((S)-2-oxo-5-(5-oxo-1,5-dihydro-4H-1,2,4-triazol-4-yl)-1-(2,3,5,6-tetrafluoro-4-(2-hydroxypropan-2-yl)phenoxy)pentan-3-yl)amino)propan-2-yl)-4-methoxy-1H-indole-2-carboxamide] | 0.295 µM | 8.71 | 6.68 | 0.0234 µM |  | 1.66 µM | > 10 µM |  | 2.7 |  |  | 78.8 µL/min/1e6 cells | 6.78 µM (≈ 5.05 µg/mL) | IC50 [12]: < 0.00692 µM; fraction unbound at 3 h, 800 µM ([10]; fraction bound (Fb)): 0.0031; fraction unbound at 3 h, 800 µM ([10]; fraction unbound (Fu)): 0.0028; hepatocyte CLint at 1 µM ([11]; CLint (mouse hepatocytes + ritonavir 4:1)): 49.3 µL/min/1e6 cells; half-life at 1 µM [15]: 22 min
COc1cccc2[nH]c(C(=O)N[C@@H](Cc3cccc(F)c3)C(=O)N[C@@H](C[C@@H]3CCNC3=O)C(=O)COc3c(F)c(F)cc(F)c3F)cc12 [compound 15, reference compound] | 0.00589 µM | 7.39 | 5.46 | 0.603 µM |  | 0.0398 µM | > 1.26 µM | 99.57% | 2.99 | 0.0043 | 0.0043 | 240 µL/min/1e6 cells | 1.4 µM (≈ 0.942 µg/mL) | selectivity for M^pro over hCTSL ([2]; biochemical assays): ~7 fold
COc1cccc2[nH]c(C(=O)N[C@@H](Cc3cccc(F)c3)C(=O)N[C@@H](C[C@@H]3CCNC3=O)C(=O)COc3c(F)c(F)c(F)c(F)c3F)cc12 [compound 16, reference compound] | 0.00676 µM | 6.98 | 5.82 | 0.55 µM | 0.676 µM | 0.0398 µM | > 0.251 µM | 99.33% | 2.95 | 0.0067 | 0.0067 | 154 µL/min/1e6 cells | 4.09 µM (≈ 2.82 µg/mL) | selectivity for M^pro over hCTSL [2]: ~16 fold
